Experiments:
[1] = tested on: transformed cells TM182-CRE1-ADHIPT4; details: TM182-CRE1-ADHIPT4, DOHLU+Glu agar containing 10 μM trans-zeatin, 30° C. for 30 hours
Protocol: After incubation, the growth state of the transformed cells was observed and photographed by a digital camera.

cytokinin receptor AHK3 = molecular target: T1, cytokinin receptor AHK3 (Arabidopsis thaliana, UniProt Q9C5U1); details: TM182-AHK3, DOLU+Glu agar, 10 μM, 30° C. for 30 hours
T1 sequence (Q9C5U1 1-1036): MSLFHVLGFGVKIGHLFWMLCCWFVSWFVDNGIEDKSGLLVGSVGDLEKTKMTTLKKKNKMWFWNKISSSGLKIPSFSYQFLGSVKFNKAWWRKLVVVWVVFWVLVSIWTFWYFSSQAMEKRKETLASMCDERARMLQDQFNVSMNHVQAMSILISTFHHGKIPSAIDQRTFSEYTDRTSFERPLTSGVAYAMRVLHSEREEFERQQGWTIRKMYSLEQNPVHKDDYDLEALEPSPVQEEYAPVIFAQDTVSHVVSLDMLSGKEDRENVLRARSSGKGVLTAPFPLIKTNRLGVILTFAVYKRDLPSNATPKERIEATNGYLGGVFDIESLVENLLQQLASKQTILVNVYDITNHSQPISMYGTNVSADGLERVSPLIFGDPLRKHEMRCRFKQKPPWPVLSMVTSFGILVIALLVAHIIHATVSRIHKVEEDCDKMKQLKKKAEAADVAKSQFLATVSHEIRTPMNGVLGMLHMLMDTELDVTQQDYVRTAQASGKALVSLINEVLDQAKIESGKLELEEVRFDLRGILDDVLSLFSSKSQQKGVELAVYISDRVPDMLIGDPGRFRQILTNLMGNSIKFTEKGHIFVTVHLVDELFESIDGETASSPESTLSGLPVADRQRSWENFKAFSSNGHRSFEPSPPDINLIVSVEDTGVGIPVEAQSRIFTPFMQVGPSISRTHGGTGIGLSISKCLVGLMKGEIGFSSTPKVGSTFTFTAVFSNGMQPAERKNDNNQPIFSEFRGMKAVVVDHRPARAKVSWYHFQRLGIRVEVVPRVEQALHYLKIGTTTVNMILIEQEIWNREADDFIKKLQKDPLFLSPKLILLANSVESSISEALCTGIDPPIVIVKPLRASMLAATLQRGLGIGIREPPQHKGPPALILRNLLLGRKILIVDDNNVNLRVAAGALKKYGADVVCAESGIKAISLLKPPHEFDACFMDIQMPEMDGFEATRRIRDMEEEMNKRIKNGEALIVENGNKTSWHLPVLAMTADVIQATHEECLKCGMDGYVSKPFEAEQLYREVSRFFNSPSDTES
Protocol: (§1) A culture solution 10 μl (about 800 clones of yeast) of the transformed cells TM182-CRE1, TM182-AHK2, TM182-AHK2Δ and TM182-AHK3 produced by the example 12 was spotted on DOLU+Glu agar media containing 10 μM of trans-zeatin and cultured at 30° C. for 30 hours. After incubation, the growth state of the transformed cells was observed and photographed by a digital camera.

cytokinin receptor CRE1 = cytokinin receptor CRE1 (Arabidopsis thaliana, UniProt Q9C5U0, S567G/T1018A); details: TM182-CRE1, DOLU+Glu agar, 30° C. for 30 hours
Protocol: as §1
(§2) Culture solutions of the transformed cells TM182-CRE1, TM182-AHK2Δ and TM182-AHK2 produced by the reference example 1 were spotted on DOLU+Glu agar media containing cytokinin in a variety of concentrations (1 nM, 10 nM, 100 nM, 1 μM, 10 μM, 100 μM) and cultured at 30° C. for 30 hours. After incubation, the growth state of the transformed cells was observed and photographed by a digital camera.

cytokinin receptor AHK2 = molecular target: T2, cytokinin receptor AHK2 (Arabidopsis thaliana, UniProt Q9C5U2); details: TM182-AHK2, DOLU+Glu agar, 30° C. for 30 hours
T2 sequence (Q9C5U2 1-1176): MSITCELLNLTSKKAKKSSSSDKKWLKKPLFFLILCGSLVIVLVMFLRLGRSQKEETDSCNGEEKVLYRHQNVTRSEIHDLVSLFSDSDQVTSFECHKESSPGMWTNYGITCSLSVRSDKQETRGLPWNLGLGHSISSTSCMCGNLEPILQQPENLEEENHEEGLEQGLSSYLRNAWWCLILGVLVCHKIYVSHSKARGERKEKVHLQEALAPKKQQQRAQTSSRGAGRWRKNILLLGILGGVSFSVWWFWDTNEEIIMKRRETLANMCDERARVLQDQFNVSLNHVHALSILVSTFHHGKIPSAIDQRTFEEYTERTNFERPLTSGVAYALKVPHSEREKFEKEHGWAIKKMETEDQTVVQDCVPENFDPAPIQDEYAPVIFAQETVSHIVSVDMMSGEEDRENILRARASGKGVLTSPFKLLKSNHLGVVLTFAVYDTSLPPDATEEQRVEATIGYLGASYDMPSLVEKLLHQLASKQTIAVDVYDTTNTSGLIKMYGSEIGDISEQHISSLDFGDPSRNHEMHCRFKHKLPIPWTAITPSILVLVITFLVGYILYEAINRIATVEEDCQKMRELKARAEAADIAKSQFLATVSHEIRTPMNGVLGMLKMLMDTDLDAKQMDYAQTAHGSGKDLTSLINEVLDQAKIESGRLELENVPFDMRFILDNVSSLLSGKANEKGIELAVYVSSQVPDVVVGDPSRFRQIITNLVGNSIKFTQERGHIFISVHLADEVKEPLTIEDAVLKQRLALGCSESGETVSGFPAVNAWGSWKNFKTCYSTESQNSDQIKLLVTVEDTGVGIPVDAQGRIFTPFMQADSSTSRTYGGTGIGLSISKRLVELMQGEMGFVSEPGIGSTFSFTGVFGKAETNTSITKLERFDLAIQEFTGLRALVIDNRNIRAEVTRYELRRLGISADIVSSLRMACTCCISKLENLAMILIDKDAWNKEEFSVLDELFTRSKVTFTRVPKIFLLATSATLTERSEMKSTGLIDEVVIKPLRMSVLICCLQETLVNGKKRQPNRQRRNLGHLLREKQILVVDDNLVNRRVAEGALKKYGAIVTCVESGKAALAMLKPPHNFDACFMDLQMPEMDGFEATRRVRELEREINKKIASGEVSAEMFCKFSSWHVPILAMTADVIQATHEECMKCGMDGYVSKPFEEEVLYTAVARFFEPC
Protocol: as §1, §2

Chain of cytokinin receptor CRE1 (Q9C5U0 24-1080 S567G/T1018A): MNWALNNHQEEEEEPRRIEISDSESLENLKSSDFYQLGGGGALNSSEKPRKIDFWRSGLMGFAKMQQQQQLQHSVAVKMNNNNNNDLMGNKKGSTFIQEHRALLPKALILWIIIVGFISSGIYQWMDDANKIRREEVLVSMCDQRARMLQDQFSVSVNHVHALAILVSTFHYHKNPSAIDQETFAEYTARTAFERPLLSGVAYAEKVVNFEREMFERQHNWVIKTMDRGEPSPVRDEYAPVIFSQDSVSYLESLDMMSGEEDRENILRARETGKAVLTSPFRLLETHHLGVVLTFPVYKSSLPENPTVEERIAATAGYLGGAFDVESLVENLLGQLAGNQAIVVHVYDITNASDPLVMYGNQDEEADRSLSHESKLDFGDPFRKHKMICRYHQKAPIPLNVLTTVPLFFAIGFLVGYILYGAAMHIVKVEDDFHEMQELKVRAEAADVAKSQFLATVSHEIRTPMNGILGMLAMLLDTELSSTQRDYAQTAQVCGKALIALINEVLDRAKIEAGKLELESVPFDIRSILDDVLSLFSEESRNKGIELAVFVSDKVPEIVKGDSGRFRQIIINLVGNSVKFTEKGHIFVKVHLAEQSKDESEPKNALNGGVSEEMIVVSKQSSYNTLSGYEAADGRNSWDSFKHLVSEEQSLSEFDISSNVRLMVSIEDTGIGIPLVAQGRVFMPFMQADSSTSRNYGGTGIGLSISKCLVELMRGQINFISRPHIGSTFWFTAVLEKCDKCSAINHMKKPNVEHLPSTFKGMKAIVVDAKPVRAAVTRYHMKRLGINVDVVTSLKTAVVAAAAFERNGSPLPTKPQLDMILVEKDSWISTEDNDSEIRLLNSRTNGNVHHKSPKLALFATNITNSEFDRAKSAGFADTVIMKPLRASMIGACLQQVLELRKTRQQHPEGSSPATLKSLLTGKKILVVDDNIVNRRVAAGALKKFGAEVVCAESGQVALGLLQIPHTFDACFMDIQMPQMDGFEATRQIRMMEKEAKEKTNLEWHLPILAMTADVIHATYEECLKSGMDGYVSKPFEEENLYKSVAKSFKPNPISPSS

C/C(=C\CNc1ncnc2nc[nH]c12)CO [trans-zeatin]
growth state of the transformed cells [1]: observed to grow
growth state of the transformed cells as compared with media containing no trans-zeatin (cytokinin receptor AHK3): high growth
lowest observed supply concentration in which the transformed cells could be grown (cytokinin receptor CRE1; 1 nM to 100 μM tested): 10 µM
growth state of the transformed cells as compared with media containing no trans-zeatin (cytokinin receptor CRE1; 10 μM): high growth
lowest observed supply concentration in which the transformed cells could be grown (cytokinin receptor AHK2; 1 nM to 100 μM tested): 1 µM
growth state of the transformed cells as compared with media containing no trans-zeatin (cytokinin receptor AHK2; 10 μM): high growth

Reference: patent US20050164370A1 (priority 2003, published 2005)
